Data reported in patent publication US4668705A, “Sebosuppressive preparations containing alkoxyaryl alkanols” (Henkel Kommanditgesellschaft auf Aktien, priority 1983, dated 1987).

Key:
[1] = test system: brown skin surface lipid of the rats; assay: Antiseborrheic effect in animal test: browning of the shaved back of rats (skin surface lipid), visual assessment under double blind conditions; type: in vivo, male Wistar rats; set-up: key to Evaluation method 2 (points difference between righthand and lefthand side) / Evaluation method 3 (difference in intensity of brown shades vs untreated control animals): ++: very large (≥99.9% probability); +: significant (≥95% probability); 0: minimal (95% probability); settings: for reduction of sebum (threshold statement in text): at the concentration tested in the Table
Excerpt: The antiseborrheic effect was closely studied using the animal tests described in the following: The test animals were male Wistar rats having a body weight of 220 to 230 g at the beginning of the tests. The degree of browning on the shaved back of the rats was visually assessed. Browning is produced by the brown skin surface lipid of the rats. This test is based on the observation that young male and female rats washed with surfactant solution or with a lipid solvent and also male rats systematically treated with oestrogen only have the normal light, pink-colored skin after shaving. At the same time, only comparatively very small quantities of lipids can be extracted from the shaved hairs. In order to assess effectiveness, the test substances in solution in alcohol were each brushed onto half the back of 6 rats. The other half was only treated with the solvent minus active substances. Over the test period of 14 days, the test substances were applied once daily for a total of 9 days. A group of 6 rats which remained completely untreated was used for further control. At the end of the test, the animals were shaved on their back and sides and were visually assessed independently by an examination panel of 6 people under double blind conditions. The first criterion evaluated was whether the majority of examiners correctly recognized the treated side, differentiation being carried out as follows: The second criterion evaluated was the difference between the righthand side and the lefthand side, each examiner having to award 1 point per animal on the following basis: darker side--1 point lighter side--0 point and both sides the same--0.5 point Significant differences between the untreated and treated sides in the second method of evaluation indicate the local effectiveness of a substance. The third criterion evaluated was the difference in intensity between the shades of brown using the following scale: 3 points--dark brown 2 points--medium brown 1 point--light brown 0 points--no browning In the third method of evaluation, total point differences are compared between the untreated control animals and the treated and untreated sides of the test animals, significant differences between the control animals and the treated side of the test animals again indicating the effectiveness of a substance. There is generally also a distinct difference between the untreated and treated sides of the same test animals. However, this difference is not always as clear as that between the control animals and the treated sides, for which there may be various reasons, such as mechanical transfer of substance from one side to the other or solvent influence. The following scheme was used for differentiating the effects according to evaluation methods 2 and 3: The sebum reduction is calculated from the points difference by working out the quotient between the points difference ΔP and the number of points for the control group Pk, and expressing the value obtained in percent. Sebum reduction=(ΔP/Pk ·100 [%] […]

[2] = test system: seborrhea of the scalp; settings: prior art, cited from earlier work; for antiseborrheic effect of known additives: additives to cosmetic preparations
[3] = Conc. 0.2%, topical, once daily, 9 applications in 14 days
[4] = Rattus norvegicus, 336 h, Conc. 0.2%, topical, once daily, 9 applications in 14 days, ΔP/Pk × 100, read-out: Sebum reduction
[5] = Conc. 0.5%, topical, once daily, 9 applications in 14 days
[6] = Rattus norvegicus, 336 h, Conc. 0.5%, topical, once daily, 9 applications in 14 days, ΔP/Pk × 100, read-out: Sebum reduction
[7] = Conc. 1.0%, topical, once daily, 9 applications in 14 days
[8] = Rattus norvegicus, 336 h, Conc. 1.0%, topical, once daily, 9 applications in 14 days, ΔP/Pk × 100, read-out: Sebum reduction
[9] = Conc. 0.1%, topical, once daily, 9 applications in 14 days

CCCCCCCCCCOc1ccc(CO)cc1 [B, 4-decyloxybenzyl alcohol]
Evaluation method 1 (percentage of examiners noticing an effect, treated side recognized) [1, 3]: ++ (100%) | Evaluation method 2 (points difference between righthand and lefthand side) [1, 3]: ++ (very large (≥99.9% probability)) | Evaluation method 3 (difference in intensity of brown shades vs untreated control animals) [1, 3]: ++ (very large (≥99.9% probability)) | inhibition in vivo at 0.2 % [1, 4]: 95%

CCCCCCCCCCCCOc1cccc(CO)c1 [H, 3-dodecyloxybenzyl alcohol]
Evaluation method 1 (percentage of examiners noticing an effect, treated side recognized) [1, 5]: ++ (100%) | Evaluation method 2 (points difference between righthand and lefthand side) [1, 5]: ++ (very large (≥99.9% probability)) | Evaluation method 3 (difference in intensity of brown shades vs untreated control animals) [1, 5]: ++ (very large (≥99.9% probability)) | inhibition in vivo at 0.5 % [1, 6]: 69% | reduction of sebum (threshold statement in text) [1]: at least 50%

S1SSSSSSS1 [sulfur]
antiseborrheic effect of known additives [2]: without giving really satisfactory results in regard to efficacy | side effects of known additives ([2]; after prolonged use): frequently produce side effects after prolonged use

mercury
antiseborrheic effect of known additives [2]: without giving really satisfactory results in regard to efficacy

CCCCCCOc1ccc(CO)cc1 [E, 4-hexyloxybenzyl alcohol]
Evaluation method 1 (percentage of examiners noticing an effect, treated side recognized) [1, 3]: ++ (100%) | Evaluation method 2 (points difference between righthand and lefthand side) [1, 3]: ++ (very large (≥99.9% probability)) | Evaluation method 3 (difference in intensity of brown shades vs untreated control animals) [1, 3]: ++ (very large (≥99.9% probability)) | inhibition in vivo at 0.2 % [1, 4]: 92%

OCc1ccccc1 [Benzyl alcohol, reference compound]
Evaluation method 1 (percentage of examiners noticing an effect, treated side recognized) [1, 7]: 0 (≤50%) | Evaluation method 2 (points difference between righthand and lefthand side) [1, 7]: 0 | Evaluation method 3 (difference in intensity of brown shades vs untreated control animals) [1, 7]: 0 | inhibition in vivo at 1 % [1, 8]: 0%

CCCCCCCCCCOc1ccc(CCO)cc1 [C, 2-(4-decyloxyphenyl)-ethanol]
Evaluation method 1 (percentage of examiners noticing an effect, treated side recognized) [1, 7]: ++ (100%) | Evaluation method 2 (points difference between righthand and lefthand side) [1, 7]: ++ (very large (≥99.9% probability)) | Evaluation method 3 (difference in intensity of brown shades vs untreated control animals) [1, 7]: ++ (very large (≥99.9% probability)) | inhibition in vivo at 1 % [1, 8]: 56% | reduction of sebum (threshold statement in text) [1]: at least 50%

CCCCCCCCCCOc1cccc(CO)c1 [K, 3-decyloxybenzyl alcohol]
Evaluation method 1 (percentage of examiners noticing an effect, treated side recognized) [1, 5]: ++ (100%) | Evaluation method 2 (points difference between righthand and lefthand side) [1, 5]: ++ (very large (≥99.9% probability)) | Evaluation method 3 (difference in intensity of brown shades vs untreated control animals) [1, 5]: ++ (very large (≥99.9% probability)) | inhibition in vivo at 0.5 % [1, 6]: 53% | reduction of sebum (threshold statement in text) [1]: at least 50%

CCCCCCCCCCCCOc1ccc(CO)cc1 [D, 4-dodecyloxybenzyl alcohol]
Evaluation method 1 (percentage of examiners noticing an effect, treated side recognized) [1, 9]: ++ (100%) | Evaluation method 2 (points difference between righthand and lefthand side) [1, 9]: ++ (very large (≥99.9% probability)) | Evaluation method 3 (difference in intensity of brown shades vs untreated control animals) [1, 9]: ++ (very large (≥99.9% probability)) | inhibition in vivo at 0.1 % ([1]; Rattus norvegicus, 336 h, Conc. 0.1%, topical, once daily, 9 applications in 14 days, ΔP/Pk × 100, read-out: Sebum reduction): 88%

CCCCCCCCOc1ccc(CO)cc1 [F, 4-octyloxybenzyl alcohol]
Evaluation method 1 (percentage of examiners noticing an effect, treated side recognized) [1, 3]: ++ (100%) | Evaluation method 2 (points difference between righthand and lefthand side) [1, 3]: ++ (very large (≥99.9% probability)) | Evaluation method 3 (difference in intensity of brown shades vs untreated control animals) [1, 3]: ++ (very large (≥99.9% probability)) | inhibition in vivo at 0.2 % [1, 4]: 95%

CCCCCCCCCCOc1ccccc1CO [G, 2-decyloxybenzyl alcohol]
Evaluation method 1 (percentage of examiners noticing an effect, treated side recognized) [1, 5]: ++ (100%) | Evaluation method 2 (points difference between righthand and lefthand side) [1, 5]: ++ (very large (≥99.9% probability)) | Evaluation method 3 (difference in intensity of brown shades vs untreated control animals) [1, 5]: ++ (very large (≥99.9% probability)) | inhibition in vivo at 0.5 % [1, 6]: 20%

3,7,11-trimethyl-2,6,10-dodecatrien-1-ol ethyl ether and/or acetate
antiseborrheic effect of known additives [2]: only a very weak antiseborrheic effect

CCCCCCCCCCCCCCOc1ccc(CO)cc1 [A, 4-tetradecyloxybenzyl alcohol]
Evaluation method 1 (percentage of examiners noticing an effect, treated side recognized) [1, 5]: ++ (100%) | Evaluation method 2 (points difference between righthand and lefthand side) [1, 5]: ++ (very large (≥99.9% probability)) | Evaluation method 3 (difference in intensity of brown shades vs untreated control animals) [1, 5]: ++ (very large (≥99.9% probability)) | inhibition in vivo at 0.5 % [1, 6]: 97%

CCCCCCCCCCCCCCOc1cccc(CO)c1 [I, 3-tetradecyloxybenzyl alcohol]
Evaluation method 1 (percentage of examiners noticing an effect, treated side recognized) [1, 5]: ++ (100%) | Evaluation method 2 (points difference between righthand and lefthand side) [1, 5]: ++ (very large (≥99.9% probability)) | Evaluation method 3 (difference in intensity of brown shades vs untreated control animals) [1, 5]: ++ (very large (≥99.9% probability)) | inhibition in vivo at 0.5 % [1, 6]: 22%
